Results from patent publication US10214542B2, “Modified macrocyclic compounds” (BAYER PHARMA AKTIENGESELLSCHAFT, priority 2015, dated 2019).

Tests used:
[1] = biological target: T1, CDK9/CycT1 (Homo sapiens, UniProt P50750); assay: CDK9/CycT1 kinase assay (TR-FRET, Method 1a); assay type: biochemical; conditions: 10 μM ATP; for IC50: Method 1a; for Selectivity CDK9 over CDK2: IC50 (CDK2)/IC50 (CDK9): Methods 1a and 2a
T1 construct: Recombinant full-length His-tagged human CDK9 and CycT1; His; purchased Invitrogen PV4131; host or cells: insect cells
Text: 1a. CDK9/CycT1 Kinase Assay:
CDK9/CycT1-inhibitory activity of compounds of the present invention was quantified employing the CDK9/CycT1 TR-FRET assay as described in the following paragraphs:
Recombinant full-length His-tagged human CDK9 and CycT1, expressed in insect cells and purified by Ni-NTA affinity chromatography, were purchased from Invitrogen (Cat. No PV4131). As substrate for the kinase reaction biotinylated peptide biotin-Ttds-YISPLKSPYKISEG (C-terminus in amid form) was used which can be purchased e.g. from the company JERINI Peptide Technologies (Berlin, Germany).
(§1) For the assay 50 nl of a 100 fold concentrated solution of the test compound in DMSO was pipetted into a black low volume 384 well microtiter plate (Greiner Bio-One, Frickenhausen, Germany), 2 μl of a solution of CDK9/CycT1 in aqueous assay buffer [50 mM Tris/HCl pH 8.0, 10 mM MgCl2, 1.0 mM dithiothreitol, 0.1 mM sodium ortho-vanadate, 0.01% (v/v) Nonidet-P40 (Sigma)] were added and the mixture was incubated for 15 min at 22° C. to allow pre-binding of the test compounds to the enzyme before the start of the kinase reaction. […] The concentration of CDK9/CycT1 was adjusted depending of the activity of the enzyme lot and was chosen appropriate to have the assay in the linear range, typical concentrations were in the range of 1 μg/mL. The reaction was stopped by the addition of 5 μl of a solution of TR-FRET detection reagents (0.2 μM streptavidine-XL665 [Cisbio Bioassays, Codolet, France] and 1 nM anti-RB(pSer807/pSer811)-antibody from BD Pharmingen [#558389] and 1.2 nM LANCE EU-W1024 labeled anti-mouse IgG antibody [Perkin-Elmer, product no. AD0077]) in an aqueous EDTA-solution (100 mM EDTA, 0.2% (w/v) bovine serum albumin in 100 mM HEPES pH 7.5).
(§2) The resulting mixture was incubated 1 h at 22° C. to allow the formation of complex between the phosphorylated biotinylated peptide and the detection reagents. Subsequently the amount of phosphorylated substrate was evaluated by measurement of the resonance energy transfer from the Eu-chelate to the streptavidine-XL. Therefore, the fluorescence emissions at 620 nm and 665 nm after excitation at 350 nm was measured in a HTRF reader, e.g. a Rubystar (BMG Labtechnologies, Offenburg, Germany) or a Viewlux (Perkin-Elmer). The ratio of the emissions at 665 nm and at […] was taken as the measure for the amount of phosphorylated substrate. The data were normalised (enzyme reaction without inhibitor=0% inhibition, all other assay components but no enzym=100% inhibition).

[2] = biological target: T2, CDK2/CycE (Homo sapiens, UniProt P24941); assay: CDK2/CycE kinase assay (TR-FRET, Method 2a); assay type: biochemical; conditions: 10 μM ATP
T2 construct: GST; purchased ProQinase GmbH (Freiburg, Germany); host or cells: insect cells (Sf9)
Text: 2a. CDK2/CycE Kinase Assay:
CDK2/CycE-inhibitory activity of compounds of the present invention was quantified employing the CDK2/CycE TR-FRET assay as described in the following paragraphs:
Recombinant fusion proteins of GST and human CDK2 and of GST and human CycE, expressed in insect cells (Sf9) and purified by Glutathion-Sepharose affinity chromatography, were purchased from ProQinase GmbH (Freiburg, Germany). As substrate for the kinase reaction biotinylated peptide biotin-Ttds-YISPLKSPYKISEG (C-terminus in amid form) was used which can be purchased e.g. from the company JERINI Peptide Technologies (Berlin, Germany).
as §1, with “CDK2/CycE” for “CDK9/CycT1”, “130 ng/mL.” for “1 μg/mL.”
as §2, with “TR-FRET” for “HTRF”

T1 sequence (P50750 whole entry): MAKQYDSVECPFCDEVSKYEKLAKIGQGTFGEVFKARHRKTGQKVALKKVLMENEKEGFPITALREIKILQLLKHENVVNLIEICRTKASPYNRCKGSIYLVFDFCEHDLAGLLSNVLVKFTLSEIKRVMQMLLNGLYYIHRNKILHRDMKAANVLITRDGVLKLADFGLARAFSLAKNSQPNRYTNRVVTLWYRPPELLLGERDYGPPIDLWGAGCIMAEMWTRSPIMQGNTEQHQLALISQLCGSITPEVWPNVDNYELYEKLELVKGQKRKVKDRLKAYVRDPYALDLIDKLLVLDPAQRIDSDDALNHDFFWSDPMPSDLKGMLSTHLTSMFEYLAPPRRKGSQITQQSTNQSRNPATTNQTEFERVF
T1 sequence (O60563 whole entry partner): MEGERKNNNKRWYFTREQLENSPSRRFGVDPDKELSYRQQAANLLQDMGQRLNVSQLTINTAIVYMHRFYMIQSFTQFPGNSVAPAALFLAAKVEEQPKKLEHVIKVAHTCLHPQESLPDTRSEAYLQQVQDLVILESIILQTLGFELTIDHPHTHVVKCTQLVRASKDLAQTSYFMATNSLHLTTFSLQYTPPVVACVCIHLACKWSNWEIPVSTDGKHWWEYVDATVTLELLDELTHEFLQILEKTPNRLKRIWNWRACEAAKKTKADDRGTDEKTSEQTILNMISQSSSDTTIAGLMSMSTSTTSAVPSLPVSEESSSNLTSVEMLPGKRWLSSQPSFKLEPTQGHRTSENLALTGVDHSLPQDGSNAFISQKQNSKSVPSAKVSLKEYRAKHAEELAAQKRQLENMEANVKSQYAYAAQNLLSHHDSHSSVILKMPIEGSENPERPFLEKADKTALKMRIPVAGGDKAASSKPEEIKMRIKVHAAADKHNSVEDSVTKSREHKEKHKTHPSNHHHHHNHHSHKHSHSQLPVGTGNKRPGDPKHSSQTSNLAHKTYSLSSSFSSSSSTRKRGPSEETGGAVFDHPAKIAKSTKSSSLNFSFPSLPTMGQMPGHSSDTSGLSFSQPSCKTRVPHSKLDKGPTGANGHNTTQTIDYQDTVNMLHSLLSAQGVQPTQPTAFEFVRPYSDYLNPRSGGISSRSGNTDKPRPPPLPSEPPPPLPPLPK

| SMILES | IC50 [1] [nM] | IC50 [2] [nM] | Selectivity CDK9 over CDK2: IC50 (CDK2)/IC50 (CDK9) [1] |
| --- | --- | --- | --- |
| CC(C)(C)OC(=O)N=S(C)(=O)Cc1cc2cc(c1)OCCCNc1cc(F)ccc1-c1nc(ncc1F)N2 (racemic) [Example 13, (rac)-tert-butyl[{[15,19-difluoro-1,2,3,4-tetrahydro-16,12-(azeno)-6,10-(metheno)-5,1,11,13-benzoxatriazacyclooctadecin-8(11H)-yl]methyl}(methyl)oxido-λ^6-sulfanylidene]carbamate] | 6.5 |  |  |
| CN1CCCCOc2cc(F)ccc2-c2cc(ncc2F)Nc2cc(CS(C)(=N)=O)cc1n2 (racemic) [Example 11, (rac)-16,20-difluoro-6-methyl-9-[(S-methylsulfonimidoyl)methyl]-3,4,5,6-tetrahydro-2H-7,11-(azeno)-17,13-(metheno)-1,6,12,14-benzoxatriazacyclononadecine] | 5.1 | 34 | 6.7 |
| C[S+]([O-])Cc1cc2nc(c1)OCCCCCc1cc(F)ccc1-c1cc(ncc1F)N2 (racemic) [Example 19, (rac)-2,19-difluoro-9-[(methylsulfinyl)methyl]-14,15,16,17-tetrahydro-6H,13H-7,11-(azeno)-5,1-(metheno)-12,4,6-benzoxadiazacyclononadecine] | 15 | 371 | 24.7 |
| CN1CCCCOc2cc(F)ccc2-c2nc(ncc2F)Nc2cc(CS(C)(=N)=O)cc1c2 (racemic) [Example 23, (rac)-16,20-difluoro-6-methyl-9-[(S-methylsulfonimidoyl)methyl]-3,4,5,6-tetrahydro-2H,12H-13,17-(azeno)-11,7-(metheno)-1,6,12,14-benzoxatriazacyclononadecine] | 5.2 | 104 | 20.0 |
| CSCc1cc2nc(c1)Nc1cc(c(F)cn1)-c1ccc(F)cc1OCCCN2 [Example 1, 15,19-Difluoro-8-[(methylsulfanyl)methyl]-2,3,4,5-tetrahydro-11H-10,6-(azeno)-12,16-(metheno)-1,5,11,13-benzoxatriazacyclooctadecine] | 2.9 | 81.5 | 28.1 |
| CC(C)(C)OC(=O)N=S(C)(=O)Cc1cc2nc(c1)Nc1cc(c(F)cn1)-c1ccc(F)cc1OCCCCCN2 (racemic) [Example 9, (rac)-tert-butyl[{[17,21-difluoro-2,3,4,5,6,7-hexahydro-13H-12,8-(azeno)-14,18-(metheno)-1,7,13,15-benzoxatriazacycloicosin-10-yl]methyl}(methyl)oxido-λ^6-sulfanylidene]carbamate] | 13 | 96 | 7.4 |
| CS(=N)(=O)Cc1cc2cc(c1)OCCCCNc1cc(F)ccc1-c1nc(ncc1F)N2 (racemic) [Example 16, (rac)-16,20-difluoro-9-[(S-methylsulfonimidoyl)methyl]-2,3,4,5-tetrahydro-1H-17,13-(azeno)-7,11-(metheno)-6,1,12,14-benzoxatriazacyclononadecine] | 3.9 | 30 | 7.7 |
| CS(=N)(=O)Cc1cc2cc(c1)OCCCNc1cc(F)ccc1-c1nc(ncc1F)N2 (racemic) [Example 14, rac-15,19-difluoro-8-[(S-methylsulfonimidoyl)methyl]-1,2,3,4-tetrahydro-16,12-(azeno)-6,10-(metheno)-5,1,11,13-benzoxatriazacyclooctadecine] | 3.2 |  |  |
| CSCc1cc2nc(c1)OCCCCc1cc(F)ccc1-c1cc(ncc1F)N2 [Example 4, 2,18-Difluoro-9-[(methylsulfanyl)methyl]-13,14,15,16-tetrahydro-6H-7,11-(azeno)-5,1-(metheno)-12,4,6-benzoxadiazacyclooctadecine] | 36 | > 20000 | >556 |
| CN1CCCCNc2cc(F)ccc2-c2nc(ncc2F)Nc2cc(CS(C)(=N)=O)cc1c2.O=CO (racemic) [Example 17, (rac)-16,20-difluoro-6-methyl-9-[(S-methylsulfonimidoyl)methyl]-1,2,3,4,5,6-hexahydro-12H-17,13-(azeno)-11,7-(metheno)-1,6,12,14-benzotetraazacyclononadecine; salt with formic acid] | 4.2 | 74 | 17.6 |
| CS(=N)(=O)Cc1cc2nc(c1)Nc1cc(c(F)cn1)-c1ccc(F)cc1OCCCCN2 (racemic) [Example 3, (rac)-16,20-Difluoro-9-[(S-methylsulfonimidoyl)methyl]-3,4,5,6-tetrahydro-2H,12H-11,7-(azeno)-13,17-(metheno)-1,6,12,14-benzoxatriazacyclononadecine] | 8.3 | 44 | 5.3 |
| CS(=N)(=O)Cc1cc2nc(c1)Nc1cc(c(F)cn1)-c1ccc(F)cc1OCCCCCN2 (racemic) [Example 10, (rac)-17,21-difluoro-10-[(S-methylsulfonimidoyl)methyl]-2,3,4,5,6,7-hexahydro-13H-12,8-(azeno)-14,18-(metheno)-1,7,13,15-benzoxatriazacycloicosine] | 3.4 | 28 | 8.2 |
| CC(C)(C)OC(=O)N=S(C)(=O)Cc1cc2nc(c1)Nc1cc(c(F)cn1)-c1ccc(F)cc1OCCCN2 (racemic) [Example 7, (rac)-tert-butyl[{[15,19-difluoro-2,3,4,5-tetrahydro-11H-10,6-(azeno)-16,12-(metheno)-1,5,11,13-benzoxatriazacyclooctadecin-8-yl]methyl}(methyl)oxido-λ^6-sulfanylidene]carbamate] | 7.5 | 27 | 3.6 |
| CC(C)(C)OC(=O)N=S(C)(=O)Cc1cc2cc(c1)Nc1ncc(F)c(n1)-c1ccc(F)cc1OCCCCN2 (racemic) [Example 24, (rac)-tert-butyl[{[16,20-difluoro-3,4,5,6-tetrahydro-2H,12H-13,17-(azeno)-11,7-(metheno)-1,6,12,14-benzoxatriazacyclononadecin-9-yl]methyl}(methyl)oxido-λ^6-sulfanylidene]carbamate] | 91 | 2570 | 28.2 |
